According to patent US9394284B2, “Compounds act at multiple prostaglandin receptors giving a general anti-inflammatory response” (Allergan, Inc., priority 2010, dated 2016):

Experiments:
Assay type in all cases: cell-based
[1] = biological target: T1, human prostanoid EP3 receptor (Homo sapiens, UniProt P43115); experiment: FLIPR Ca2+ signaling antagonist assay, EP3 receptor stable cell line; details: HEK-293 EBNA stable cell line; standard agonist PGE2; NA = inactive (no antagonism or Kb 10,000 nM); PAg, Ag not defined
T1 construct: expressed in transfected cells
T1 sequence (P43115 1-390): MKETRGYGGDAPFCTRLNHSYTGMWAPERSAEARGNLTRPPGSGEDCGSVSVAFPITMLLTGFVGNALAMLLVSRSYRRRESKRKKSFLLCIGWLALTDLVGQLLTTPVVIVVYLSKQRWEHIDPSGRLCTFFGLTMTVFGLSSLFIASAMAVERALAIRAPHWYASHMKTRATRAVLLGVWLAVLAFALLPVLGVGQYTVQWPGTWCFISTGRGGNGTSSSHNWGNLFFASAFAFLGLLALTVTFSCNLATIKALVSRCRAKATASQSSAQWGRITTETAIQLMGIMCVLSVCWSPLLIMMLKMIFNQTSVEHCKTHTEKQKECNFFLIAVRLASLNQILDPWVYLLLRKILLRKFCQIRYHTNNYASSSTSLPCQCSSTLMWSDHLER
Description: The above compounds were tested for PG antagonist activity as follows using human recombinant prostanoid receptor (DP1, EP1-4, FP, IP and TP) stable cell lines:
In order to measure the response of Gs and Gi coupled prostanoid receptors as a Ca^2+ signal, chimeric G protein cDNAs were used. Stable cell lines over-expressing human prostanoid DP1, EP1-4, FP, IP, and TP receptors were established as follows:
Briefly, human prostanoid DP1, EP2, and EP4 receptor cDNAs were co-transfected with chimeric Gqs cDNA containing a haemagglutanin (HA) epitope; human prostanoid EP3 receptors were co-transfected with chimeric Gqi-HA; human EP1, FP, IP, and TP receptor cDNAs were expressed with no exogenous G-proteins. Gqs and Gqi chimeric cDNAs (Molecular Devices, Sunnyvale, Calif., U.S.A.), as well as cDNAs of prostanoid receptors, were cloned into a pCEP4 vector with a hygromycin B selection marker. Transfection into HEK-293 EBNA (Epstein-Barr virus nuclear antigen) cells was achieved by the FuGENE 6 transfection Reagent (Roche Applied Science, Indianapolis, Ind., USA). Stable transfectants were selected according to hygromycin resistance. Because Gqs and Gqi contained an HA epitope, G-protein expression was detected by Western blotting analysis using anti-mouse HA monoclonal antibody and horseradish peroxidase (HRP)-conjugated secondary antibody, while functional expression of prostanoid receptors was detected by FLIPR screening (Matias et al., 2004). These stable cell lines were validated using previously published antagonists at 10 μM against serial dilutions of standard agonists by FLIPR functional assays for Ca^2+ Signaling (as described below).
Ca^2+ signaling studies were performed using a FLIPR TETRA system (Molecular Devices, Sunnyvale, Calif., USA) in the 384-format. This is a high-throughput instrument for cell-based assays to monitor Ca^2+ signaling associated with GPCRs and ion channels. Cells were seeded at a density of 5×10^4 cells/well in BioCoat poly-D-lysine coated, black wall, clear bottom 384-well plates (BD Biosciences, Franklin lakes, NJ, USA) and allowed to attach overnight in an incubator at 37° C. The cells were then washed twice with HBSS-HEPES buffer (Hanks' balanced salt solution without bicarbonate and phenol red, 20 mM HEPES, pH 7.4) using an ELx405 Select CW Microplate Washer (BioTek, Winooski, Vt., USA). After 60 min of dye-loading in the dark using the Ca^2+-sensitive dye Fluo-4AM (Invitrogen, Carlsbad, Calif., USA), at a final concentration of 2×10^−6M, the plates were washed 4 times with HBSS-HEPES buffer to remove excess dye and leaving 50 μl of buffer in each well. The plates were then placed in the FLIPR TETRA instrument and allowed to equilibrate at 37° C. AGN-211377 was added in a 25 μl volume to each well to give final concentrations of 0.1 μM, 0.3 μM, 1 μM, 3 μM, 10 μM, and 30 μM; or 0.067 μM, 0.1 μM, 0.2 μM, 0.3 μM, 0.67 μM, and 1 μM for cells over-expressing TP receptors. After 4.5 minutes, a 7-point serial dilution of the standard agonist for the corresponding receptor, in a 25 μl volume was injected at the final concentrations from 10^−11M to 10^−5M in 10-fold serial dilution increments for cells expressing human recombinant DP1, EP1, EP2, EP3, EP4, FP, and IP receptors. The dose range for the standard agonist for human recombinant TP receptors was from 10^−12 M to 10^−6 M. HBSS-HEPES buffer was used as the negative control for the standard agonists. Cells were excited with LED (light emitting diode) excitation at 470-495 nm and emission was measured through an emission filter at 515-575 nm. Assay plates were read for 3.5 minutes using the FLIPR^TETRA. The peak increase in fluorescence intensity was recorded for each well. On each plate, negative controls, dose response of positive controls, and co-treatments of antagonist-agonist for each dose were in triplicates.
Standard agonists were as follows: DP=BW 245C, EP1-EP4=PGE2, FP=17-phenyl-PGF2α, IP=Cicaprost, and TP=U-46619. […]

[2] = biological target: T2, human prostanoid EP1 receptor (Homo sapiens, UniProt P34995); experiment: FLIPR Ca2+ signaling antagonist assay, EP1 receptor stable cell line; details: HEK-293 EBNA stable cell line; standard agonist PGE2; NA = inactive (no antagonism or Kb 10,000 nM); PAg, Ag not defined
T2 construct: expressed in transfected cells
T2 sequence (P34995 1-402): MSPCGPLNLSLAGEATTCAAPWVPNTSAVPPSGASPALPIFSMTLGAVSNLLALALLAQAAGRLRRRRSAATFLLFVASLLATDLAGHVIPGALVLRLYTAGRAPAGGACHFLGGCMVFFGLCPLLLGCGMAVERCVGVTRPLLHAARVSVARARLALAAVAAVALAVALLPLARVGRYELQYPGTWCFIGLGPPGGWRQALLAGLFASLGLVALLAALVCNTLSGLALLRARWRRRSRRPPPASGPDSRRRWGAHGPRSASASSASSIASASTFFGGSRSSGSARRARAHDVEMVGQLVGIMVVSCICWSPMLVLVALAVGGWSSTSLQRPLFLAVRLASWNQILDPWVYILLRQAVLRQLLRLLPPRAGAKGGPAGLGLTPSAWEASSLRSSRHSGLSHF
How it was run: (§1)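 Peak Fluo-4 fluorescence (ex 470–495, em 515–575 nm) was read for 3.5 min on FLIPR after agonist injection and expressed relative to 10^−6 M standard agonist. Cells were HEK-293 EBNA transfectants. Test compound was added 4.5 min beforehand at 0.1–30 μM, or 0.067–1 μM for TP.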

[3] = biological target: T3, human prostanoid IP receptor (Homo sapiens, UniProt P43119); experiment: FLIPR Ca2+ signaling antagonist assay, IP receptor stable cell line; details: HEK-293 EBNA stable cell line; standard agonist Cicaprost; NA = inactive (no antagonism or Kb 10,000 nM); PAg, Ag not defined
T3 construct: expressed in transfected cells
T3 sequence (P43119 whole entry): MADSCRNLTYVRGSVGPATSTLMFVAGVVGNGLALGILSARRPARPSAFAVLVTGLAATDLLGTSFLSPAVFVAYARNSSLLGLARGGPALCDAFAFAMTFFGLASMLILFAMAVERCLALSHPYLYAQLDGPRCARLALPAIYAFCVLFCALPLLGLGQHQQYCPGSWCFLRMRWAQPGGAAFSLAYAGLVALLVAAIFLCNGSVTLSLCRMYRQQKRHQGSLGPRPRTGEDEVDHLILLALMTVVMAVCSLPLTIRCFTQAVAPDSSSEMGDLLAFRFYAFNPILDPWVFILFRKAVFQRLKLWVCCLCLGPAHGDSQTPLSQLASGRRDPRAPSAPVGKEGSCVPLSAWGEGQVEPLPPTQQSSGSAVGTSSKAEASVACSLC
How it was run: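 HEK-293 EBNA cells stably expressing receptor (EP3 co-expressed with chimeric Gqi; EP1, IP, TP without exogenous G protein), Fluo-4 loaded, read on FLIPR at 37° C. Antagonist added 4.5 min before standard agonist (EP1/EP3 PGE2, IP cicaprost 10^−11–10^−5 M; TP U-46619 10^−12–10^−6 M); antagonist 0.1–30 μM, TP 0.067–1 μM; peak fluorescence relative to 10^−6 M agonist.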

[4] = biological target: T4, human prostanoid EP4 receptor (Homo sapiens, UniProt P35408); experiment: FLIPR Ca2+ signaling antagonist assay, EP4 receptor stable cell line; details: HEK-293 EBNA stable cell line; standard agonist PGE2; NA = inactive (no antagonism or Kb 10,000 nM); PAg, Ag not defined
T4 construct: expressed in transfected cells
T4 sequence (P35408 whole entry): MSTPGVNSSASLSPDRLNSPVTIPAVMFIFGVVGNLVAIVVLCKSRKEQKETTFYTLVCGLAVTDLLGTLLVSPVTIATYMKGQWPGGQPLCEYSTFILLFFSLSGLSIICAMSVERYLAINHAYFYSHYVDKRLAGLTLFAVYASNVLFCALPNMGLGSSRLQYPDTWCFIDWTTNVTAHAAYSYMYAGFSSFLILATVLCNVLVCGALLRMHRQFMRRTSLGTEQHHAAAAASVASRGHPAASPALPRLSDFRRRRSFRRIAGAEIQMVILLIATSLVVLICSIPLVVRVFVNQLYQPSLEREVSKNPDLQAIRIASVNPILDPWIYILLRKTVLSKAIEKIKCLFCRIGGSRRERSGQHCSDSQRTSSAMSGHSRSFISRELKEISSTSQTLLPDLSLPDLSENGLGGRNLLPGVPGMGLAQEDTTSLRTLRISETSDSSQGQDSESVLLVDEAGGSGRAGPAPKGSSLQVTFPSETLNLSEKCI
How it was run: as §1

Compound	Kb [1]	Kb [2]	Kb [3]	Kb [4]	EP4 (FLIPR) Kb [4]	EP1 (FLIPR) Kb [2]	IP (FLIPR) Kb [3]
CCC(CC)COc1ccc(Cl)cc1Cn1nc(CC(C)C(=O)O)cc1C (racemic) [Example 68, 3-{1-[5-Chloro-2-(2-ethyl-butoxy)-benzyl]-5-methyl-1H-pyrazol-3-yl}-2-methyl-propionic acid]	5200 nM	70 nM	5700 nM	130 nM	–	–	–
CCC(CC)COc1ccc(Br)cc1Cn1nc(CCC(=O)NS(=O)(=O)C(F)(F)F)cc1C [Example 17, N-(3-{1-[5-Bromo-2-(2-ethyl-butoxy)-benzyl]-5-methyl-1H-pyrazol-3-yl}-propionyl)-C,C,C-trifluoro-methanesulfonamide]	1000 nM	15 nM	2700 nM	35 nM	–	–	–
Cc1cc(CCC(=O)NS(=O)(=O)C(F)(F)F)nn1Cc1cc(Br)ccc1OCC(C)C [Example 19, N-(3-{1-[5-Bromo-2-isobutoxybenzyl]-5-methyl-1H-pyrazol-3-yl}-propionyl)-C,C,C-trifluoro-methanesulfonamide]	700 nM	14 nM	1400 nM	30 nM	–	–	–
Cc1cc(CCC(=O)NS(=O)(=O)c2ccccc2)nn1Cc1cc(Cl)ccc1OCc1ccc(Cl)cc1 [Example 24, N-(3-[1-(5-Chloro-2-(4-chlorobenzyloxy)benzyl)-5-methyl-1H-pyrazol-3-yl]-propionyl)benzenesulfonamide]	2500 nM	50 nM	1000 nM	900 nM	–	–	–
Cc1cc(CCC(=O)NS(=O)(=O)CC(F)(F)F)nn1Cc1cc(Cl)ccc1OCc1ccc(Cl)cc1 [Example 25, 2,2,2-trifluoroethanesulfonic acid-(3-[1-(5-Chloro-2-(4-chlorobenzyloxy)benzyl)-5-methyl-1H-pyrazol-3-yl]-propionyl)amide]	4500 nM	6 nM	7900 nM	–	Ag	–	–
Cc1cc(CCC(=O)O)nn1Cc1cc(Cl)ccc1OCc1ccc(Cl)cc1Cl [Example 26, 3-[1-(5-Chloro-2-(2,4-dichlorobenzyloxy)benzyl)-5-methyl-1H-pyrazol-3-yl]-propionic acid]	7100 nM	3 nM	1000 nM	8400 nM	–	–	–
Cc1cc(CCC(=O)NS(=O)(=O)C(F)(F)F)nn1Cc1cc(Cl)ccc1OCc1ccc(Cl)cc1Cl [Example 27, N-(3-[1-(5-Chloro-2-(2,4-dichlorobenzyloxy)benzyl)-5-methyl-1H-pyrazol-3-yl]-propionyl)C,C,C-trifluoromethanesulfonamide]	500 nM	–	400 nM	150 nM	–	PAg	–
Cc1cc(CCC(=O)O)nn1Cc1cc(Cl)ccc1OCCCC(C)C [Example 40, 3-[1-(5-Chloro-2-(4-methylpentyloxy)benzyl)-5-methyl-1H-pyrazol-3-yl]-propionic acid]	5700 nM	200 nM	720 nM	1700 nM	–	–	–

Other lines, results leading:

Kb [1]	Kb [2]	Kb [3]	Kb [4]	EP4 (FLIPR) Kb [4]	EP1 (FLIPR) Kb [2]	IP (FLIPR) Kb [3]	Compound
8800 nM	380 nM	1800 nM	1100 nM	–	–	–	CCCCC(CC)COc1ccc(Br)cc1Cn1nc(CCC(=O)O)cc1C (stereo not drawn) [Example 6, 3-[1-(5-Bromo-2-(2-ethyl-hexyloxy)-benzyl)-5-methyl-1H-pyrazol-3-yl]-propionic acid]
6400 nM	40 nM	1700 nM	400 nM	–	–	–	CCCC(C)COc1ccc(Br)cc1Cn1nc(CCC(=O)O)cc1C (stereo not drawn) [Example 8, 3-[1-(5-Bromo-2-(2-methyl-pentyloxy)-benzyl)-5-methyl-1H-pyrazol-3-yl]-propionic acid]
8300 nM	30 nM	8800 nM	1000 nM	–	–	–	Cc1cc(CCC(=O)O)nn1Cc1cc(Br)ccc1OCC1(C(F)(F)F)CCC1 [Example 13, 3-[1-(5-Bromo-2-(1-trifluoromethylcyclobutylmethoxy)-benzyl)-5-methyl-1H-pyrazol-3-yl]-propionic acid]
5400 nM	100 nM	3700 nM	500 nM	–	–	–	Cc1cc(CCC(=O)O)nn1Cc1cc(Cl)ccc1OCC(C)(C)C [Example 35, 3-[1-(5-Chloro-2-(2,2-dimethylropoxy)benzyl)-5-methyl-1H-pyrazol-3-yl]-propionic acid]
1700 nM	6 nM	800 nM	80 nM	–	–	–	Cc1cc(CCC(=O)NS(=O)(=O)C(F)(F)F)nn1Cc1cc(Cl)ccc1OCC1CCCC1 [Example 43, N-(3-[1-(5-Chloro-2-cyclopentylmethoxybenzyl)-5-methyl-1H-pyrazol-3-yl]-propionyl)C,C,C-trifluoromethanesulfon amide]
7100 nM	35 nM	1500 nM	200 nM	–	–	–	Cc1cc(CCC(=O)O)nn1Cc1cc(OC(F)(F)F)ccc1OCC1CCCC1 [Example 50, 3-[1-(2-Cyclopentylmethoxy-5-trifluoromethoxy-benzyl)-5-methyl-1H-pyrazol-3-yl]-propionic acid]
6600 nM	15 nM	–	7000 nM	–	–	PAg	Cc1cc(CCC(=O)O)nn1Cc1cc(OC(F)(F)F)ccc1OCc1ccc(Cl)cc1 [Example 51, 3-[1-[2-(4-Chloro-benzyloxy)-5-trifluoromethoxy-benzyl]-5-methyl-1H-pyrazol-3-yl]-propionic acid]
